Here are results for two compounds from US20250090510A1, “eIF4G1-eIF1 INHIBITORS AND USE THEREOF” (YEDA RESEARCH AND DEVELOPMENT CO. LTD., priority 2022, published 2025).

Assay type in all cases: cell-based
The target in assay [1] is T1, eIF4G1 binding to eIF4E-cap complex (Homo sapiens, UniProt Q04637).
T1 construct: endogenous in cells; host or cells: HEK293T
Description: Cap-binding assay on m7GTP cap-analog agarose beads. The settings on record: HEK293T; i14G1-10 20 μM, i14G1-12 10 μM; 4 hours. As to the method: FIGS. 2A-C: The effect of i14G1-10 and i14G1-12 on eIF1-eIF4G1 and eIF4E-eIF4G1 complexes. (2A-B) HA-eIF1 and HA-eIF4E were each transfected into HEK293T cells and 48 h after transfection cells were treated with DMSO or i14G1-10 (2A) or i14G1-12 (2B) for 4 h, followed by immunoprecipitation of HA-eIF1 or HA-eIF4E using anti-HA-agarose beads. Western blot was run to check co-immunoprecipitation of endogenous eIF4G1 with HA-eIF1 or HA-eIF4E. The graphs represent the co-immunoprecipitation of eIF4G1 with HA-eIF1 (right) or HA-eIF4E (left). Co—IP data shown as mean±SEM of 4-7 independent experiments. The asterisks denote statistically significant difference compared to DMSO, according to Student's t-tests (one-tailed, paired). *p<0.05. (2C) HEK293T cells were treated with DMSO, i14G1-10, or i14G1-12 for 4 h, followed by cell lysis. Respective cell lysates were incubated with cap analog (γ-Aminohexyl-m7GTP) beads for 2 h to precipitate bound eIF4E. Western blot was performed to check co-precipitation of eIF4G1 along with eIF4E on the cap-analog beads. The graph represents the binding fraction of eIF4G1 and eIF4E to the cap-analog beads (mean±SEM) with DMSO (black), i14G1-10 (blue), and i14G1-12 (red), n=6. The asterisks denote statistically significant difference compared to DMSO, according to Student's t-tests (one-tailed, paired). *p<0.05; **p<0.01.
Cap-binding Assay. […]

The next assay deals with A549. Description: CellTiter-Glo luminescent cell viability assay. The settings on record: lung cancer (A549), increasing concentrations, 48 h. On the procedure:
(§1) FIGS. 3A-F: i14G1-10 and i14G1-12 inhibit mRNA translation and sensitize cell survival of eIF4G1 and eIF1 depleted cells. (3A) In-vitro translation using rabbit reticulocyte lysate which was pre-incubated with different concentrations of i14G1-10 or i14G1-12 for 10 minutes followed by the addition of capped firefly luciferase mRNA. After 90 minutes at 30° C., the luminescence signal was measured and the IC50 was calculated. The data represents mean±SEM of 6 independent repeats. (3B) HEK293T cells were treated with DMSO (vehicle control), and sub-cytotoxic concentrations of i14G1-10 (20 μM) and i14G1-12 (10 μM) for 3h. Cell lysates were then subjected to sucrose gradient sedimentation to obtain polysome profiles. (3C) HEK293T cells were treated with the indicated concentrations of i14G1-10 and i14G-12 for 3 h, followed by the addition of puromycin (10 μg/ml) for 5 minutes, after which cells were lysed and analyzed by western blot using an anti-puromycin antibody and anti-GAPDH antibody that serves as a loading control. The graph represents the mean±SEM chemiluminescence signal intensity of puromycin labeling normalized to GAPDH of 3 independent experiments. The calculated IC-50 is shown. (3D) HEK293T cells were transfected with either control or eIF4G1 siRNA in the absence or presence of eIF4G1 expression plasmid. As the eIF4G1 siRNA pool is directed against the 3′UTR, which is absent from the eIF4G1 expression plasmid, the exogenous eIF4G1 is resistant to the siRNA. 48 h after transfection, cells were treated with the indicated concentrations of i14G1-10 and i14G-12 for 3 h, followed by a 5 minutes puromycin pulse as described in 3C. The graph represents the mean±SEM chemiluminescence signal intensity of puromycin labeling normalized to GAPDH of 3 independent experiments. The calculated IC-50 is shown. (3E) The graphs represent cell viability of the indicated cell lines in the presence of increasing concentrations of i14G1-10 and i14G1, analyzed by Luminescent Cell Viability Assay. (3F) Pie charts showing the cell cycle distribution of HEK293T cells treated with DMSO, i14G1-10 and i14G1-12.
(§2) The indicated cell lines in 96-well plates were treated with increasing concentrations of i14G1-10 and i14G1-12. After 48 h, cells were subjected to cell viability measurement using CellTiter-Glo Luminescent Assay (Cat no. G7571, Promega).
(§3) This was true in breast cancer (MCF7), lung cancer (A549), colorectal cancer (HCT116), ovarian cancer (OVCAR8) and in a bone cancer sarcoma cell line (U20S). To examine whether the growth defect is associated with cell cycle progression, control and drug treated cells were subjected to DNA staining by propidium iodide and then a flow cytometry analysis to determine their distribution in the sub-G1 (dead cells), G1, S and G2/M phases of the cell cycle.
Background: In ATP-based viability assays light output follows the ATP content of the culture.

The subject of a further assay is HCT116. Description: CellTiter-Glo luminescent cell viability assay. The settings on record: colorectal cancer (HCT116), increasing concentrations, 48 h. As to the method:
as §1, §2, §3

The next assay deals with OVCAR8. Description: CellTiter-Glo luminescent cell viability assay. The settings on record: ovarian cancer (OVCAR8), increasing concentrations, 48 h. As to the method:
as §1, §2, §3

For a further assay, the system named is MCF7. Description: CellTiter-Glo luminescent cell viability assay. The settings on record: breast cancer (MCF7), increasing concentrations, 48 h. On the procedure:
as §1, §2, §3

The subject of another assay is U20S. Description: CellTiter-Glo luminescent cell viability assay. Particulars: bone cancer sarcoma cell line (U20S), increasing concentrations, 48 h. As to the method:
as §1, §2, §3

T1 sequence (Q04637 whole entry): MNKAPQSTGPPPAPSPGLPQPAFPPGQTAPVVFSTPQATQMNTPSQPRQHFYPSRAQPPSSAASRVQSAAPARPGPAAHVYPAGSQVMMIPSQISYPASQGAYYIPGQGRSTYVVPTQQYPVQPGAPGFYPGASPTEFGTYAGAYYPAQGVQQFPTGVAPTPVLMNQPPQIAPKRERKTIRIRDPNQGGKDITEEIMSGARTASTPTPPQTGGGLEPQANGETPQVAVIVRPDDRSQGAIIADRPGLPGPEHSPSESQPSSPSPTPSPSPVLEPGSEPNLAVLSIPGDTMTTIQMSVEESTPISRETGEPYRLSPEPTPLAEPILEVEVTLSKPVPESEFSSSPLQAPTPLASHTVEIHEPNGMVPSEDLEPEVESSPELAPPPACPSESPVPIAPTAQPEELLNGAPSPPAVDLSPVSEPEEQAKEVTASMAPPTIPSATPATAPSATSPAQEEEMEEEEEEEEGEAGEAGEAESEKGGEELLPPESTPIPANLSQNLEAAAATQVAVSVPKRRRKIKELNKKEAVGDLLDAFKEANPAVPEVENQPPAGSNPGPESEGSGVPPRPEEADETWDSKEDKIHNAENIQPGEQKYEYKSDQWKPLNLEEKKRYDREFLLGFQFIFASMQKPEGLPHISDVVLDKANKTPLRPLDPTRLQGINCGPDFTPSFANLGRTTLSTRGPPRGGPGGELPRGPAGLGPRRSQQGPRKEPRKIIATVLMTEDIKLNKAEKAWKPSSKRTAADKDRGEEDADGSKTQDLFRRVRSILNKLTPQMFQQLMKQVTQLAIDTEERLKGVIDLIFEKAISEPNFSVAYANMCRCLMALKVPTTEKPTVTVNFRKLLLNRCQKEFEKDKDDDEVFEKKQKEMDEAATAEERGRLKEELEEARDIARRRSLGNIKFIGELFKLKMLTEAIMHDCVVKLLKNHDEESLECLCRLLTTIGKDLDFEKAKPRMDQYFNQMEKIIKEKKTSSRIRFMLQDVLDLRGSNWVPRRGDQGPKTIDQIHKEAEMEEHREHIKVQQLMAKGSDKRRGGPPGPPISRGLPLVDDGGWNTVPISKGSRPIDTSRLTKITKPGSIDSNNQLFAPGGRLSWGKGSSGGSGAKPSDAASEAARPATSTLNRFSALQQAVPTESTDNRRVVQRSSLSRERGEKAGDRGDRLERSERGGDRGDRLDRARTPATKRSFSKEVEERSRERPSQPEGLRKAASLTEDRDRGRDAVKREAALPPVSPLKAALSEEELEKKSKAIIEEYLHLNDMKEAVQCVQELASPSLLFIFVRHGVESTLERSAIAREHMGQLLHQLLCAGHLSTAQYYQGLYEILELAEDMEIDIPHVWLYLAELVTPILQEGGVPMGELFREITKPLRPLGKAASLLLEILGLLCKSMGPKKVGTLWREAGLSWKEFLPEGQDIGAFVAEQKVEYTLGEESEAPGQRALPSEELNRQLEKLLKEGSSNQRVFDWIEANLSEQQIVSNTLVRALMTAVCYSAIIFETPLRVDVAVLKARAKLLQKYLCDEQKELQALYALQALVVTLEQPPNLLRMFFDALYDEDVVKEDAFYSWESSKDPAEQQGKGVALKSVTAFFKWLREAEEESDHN
T1 sequence (P06730 2-217 partner limits assumed): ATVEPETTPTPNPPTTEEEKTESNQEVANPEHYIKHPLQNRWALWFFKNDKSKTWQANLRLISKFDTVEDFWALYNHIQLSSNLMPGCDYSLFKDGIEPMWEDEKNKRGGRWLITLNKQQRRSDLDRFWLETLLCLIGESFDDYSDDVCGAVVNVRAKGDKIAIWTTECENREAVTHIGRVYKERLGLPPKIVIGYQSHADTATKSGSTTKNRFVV

`Cn1ccnc1S/C(=C/C=C(C#N)C#N)c1ccc(Cl)cc1` [i14G1-12]: the “enhancement of eIF4G1 binding to eIF4E-cap complex” value in assay [1] is recorded as “no significant effect”. For the same compound, the growth/survival entry in the assay on A549, in the assay on HCT116, in the assay on OVCAR8, in the assay on MCF7 and in the assay with U20S was “inhibited the growth/survival” in each case.

On to `O=C(/C=C/Sc1ccc(C(F)(F)F)cn1)c1ccccc1` [i14G1-10], for which the “enhancement of eIF4G1 binding to eIF4E-cap complex” value in assay [1] stood at 1.8 folds. In addition, the growth/survival entry with A549, with HCT116, with OVCAR8, with MCF7 and in the assay on U20S was “inhibited the growth/survival” in each case.
